Values joined by “and” are separate entries in the source; they are usually repeats but may differ in a detail not shown here. Identical values can stand only once. Inconclusive results and toxic doses are left out. Rule as the data show it: active = T/C of 150% or more; inactive = T/C below 125%.
Tested on: L1210 leukemia ip in BDF1 mice, survival T/C
Experiment: NCI In Vivo Anticancer Drug Screen. Data for tumor model L1210 Leukemia (intraperitoneal) in B6D2F1 (BDF1) mice
Conditions: endpoint: mean survival time, higher = longer survival
In short: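 In this screen, tumor-bearing mice given compound are compared to those given vehicle, and their survival values are reported as a treated-to-control quotient.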

[1] = dose: 100.0 mg/kg/injection, schedule: Q01DX009 (ip), vehicle: Klucel (hydroxypropylcellulose) (HPC)
[2] = dose: 200.0 mg/kg/injection, schedule: Q01DX009 (ip), vehicle: Klucel (hydroxypropylcellulose) (HPC)
[3] = dose: 400.0 mg/kg/injection, schedule: Q01DX009 (ip), vehicle: Klucel (hydroxypropylcellulose) (HPC)
[4] = dose: 6.25 mg/kg/injection, schedule: Q01DX009 (ip), vehicle: saline
[5] = dose: 12.5 mg/kg/injection, schedule: Q01DX009 (ip), vehicle: saline
[6] = dose: 50.0 mg/kg/injection, schedule: Q01DX001 (ip), vehicle: saline
[7] = dose: 100.0 mg/kg/injection, schedule: Q01DX001 (ip), vehicle: saline
[8] = dose: 200.0 mg/kg/injection, schedule: Q01DX001 (ip), vehicle: saline
[9] = dose: 400.0 mg/kg/injection, schedule: Q01DX001 (ip), vehicle: saline
[10] = dose: 100.0 mg/kg/injection, schedule: Q04DX003 (ip), vehicle: saline with Tween-80
[11] = dose: 200.0 mg/kg/injection, schedule: Q04DX003 (ip), vehicle: saline with Tween-80
[12] = dose: 400.0 mg/kg/injection, schedule: Q04DX003 (ip), vehicle: saline with Tween-80

Measured: T/C

S=C1NC(c2cccc(Cl)c2)N2C(=S)NC(c3cccc(Cl)c3)N12 (stereo not drawn)
inactive: dose: 25.0 mg/kg/injection, schedule: Q01DX009 (ip), vehicle: gum acacia 95 % of control | dose: 50.0 mg/kg/injection, schedule: Q01DX009 (ip), vehicle: gum acacia 95 % of control | dose: 100.0 mg/kg/injection, schedule: Q01DX009 (ip), vehicle: gum acacia 101 % of control | dose: 100.0 mg/kg/injection, schedule: Q04DX003 (ip), vehicle: gum acacia 101 % of control | dose: 200.0 mg/kg/injection, schedule: Q01DX009 (ip), vehicle: gum acacia 88 % of control | dose: 200.0 mg/kg/injection, schedule: Q04DX003 (ip), vehicle: gum acacia 93 % of control | dose: 400.0 mg/kg/injection, schedule: Q01DX009 (ip), vehicle: gum acacia 87 % of control | dose: 400.0 mg/kg/injection, schedule: Q04DX003 (ip), vehicle: gum acacia 97 % of control

CC(=O)NC(CCSCc1c2ccccc2c(C)c2c1ccc1ccccc12)C(=O)O (stereo not drawn)
inactive: dose: 200.0 mg/kg/injection, schedule: Q01DX009 (ip), vehicle: saline with Tween-80 92 % of control | dose: 400.0 mg/kg/injection, schedule: Q01DX009 (ip), vehicle: saline with Tween-80 90 % of control

O=C(O)C12CCCC(CCC1)C2=O
inactive: dose: 75.0 mg/kg/injection, schedule: Q01DX001 (ip), vehicle: saline 100 % of control | dose: 150.0 mg/kg/injection, schedule: Q01DX001 (ip), vehicle: saline 102 % of control | dose: 300.0 mg/kg/injection, schedule: Q01DX001 (ip), vehicle: saline 100 % of control

NC(=O)C1CCN(C(=O)Nc2cc(C(F)(F)F)ccc2Cl)CC1
inactive: dose: 100.0 mg/kg/injection, schedule: Q01DX001 (ip), vehicle: Klucel (hydroxypropylcellulose) (HPC) 93 % of control | [1] 98 % of control and 102 % of control | dose: 100.0 mg/kg/injection, schedule: Q04DX002 (ip), vehicle: Klucel (hydroxypropylcellulose) (HPC) 103 % of control and 107 % of control | dose: 100.0 mg/kg/injection, schedule: Q04DX003 (ip), vehicle: Klucel (hydroxypropylcellulose) (HPC) 111 % of control | dose: 200.0 mg/kg/injection, schedule: Q01DX001 (ip), vehicle: Klucel (hydroxypropylcellulose) (HPC) 86 % of control | [2] 93 % of control and 98 % of control | dose: 200.0 mg/kg/injection, schedule: Q04DX002 (ip), vehicle: Klucel (hydroxypropylcellulose) (HPC) 100 % of control and 105 % of control | dose: 200.0 mg/kg/injection, schedule: Q04DX003 (ip), vehicle: Klucel (hydroxypropylcellulose) (HPC) 103 % of control | dose: 400.0 mg/kg/injection, schedule: Q01DX001 (ip), vehicle: Klucel (hydroxypropylcellulose) (HPC) 91 % of control | [3] 95 % of control | dose: 400.0 mg/kg/injection, schedule: Q04DX002 (ip), vehicle: Klucel (hydroxypropylcellulose) (HPC) 100 % of control | dose: 400.0 mg/kg/injection, schedule: Q04DX003 (ip), vehicle: Klucel (hydroxypropylcellulose) (HPC) 107 % of control

Cc1nc2c(c(=O)[nH]1)OCN(Cc1ccccc1)C2
inactive: dose: 50.0 mg/kg/injection, schedule: Q01DX001 (ip), vehicle: carboxymethylcellulose (CMC) 96 % of control | dose: 100.0 mg/kg/injection, schedule: Q01DX001 (ip), vehicle: carboxymethylcellulose (CMC) 98 % of control | dose: 200.0 mg/kg/injection, schedule: Q01DX001 (ip), vehicle: carboxymethylcellulose (CMC) 98 % of control | dose: 400.0 mg/kg/injection, schedule: Q01DX001 (ip), vehicle: carboxymethylcellulose (CMC) 98 % of control

C=CCCC[P+](c1ccccc1)(c1ccccc1)c1ccccc1
inactive: dose: 3.13 mg/kg/injection, schedule: Q01DX009 (ip), vehicle: saline 95 % of control | [4] 103 % of control | dose: 12.5 mg/kg/injection, schedule: Q01DX009 (ip), vehicle: saline with Tween-80 108 % of control | [5] 100 % of control | dose: 25.0 mg/kg/injection, schedule: Q01DX009 (ip), vehicle: saline with Tween-80 108 % of control | dose: 50.0 mg/kg/injection, schedule: Q01DX009 (ip), vehicle: saline 101 % of control

Cc1ccc(NC(=O)c2cc([N+](=O)[O-])cc([N+](=O)[O-])c2)cc1Cl
inactive: [1] 96 % of control | [2] 100 % of control | [3] 88 % of control

CC1(c2ccccc2)NC(=O)N(CCC#N)C1=O (stereo not drawn)
inactive: dose: 100.0 mg/kg/injection, schedule: Q04DX003 (ip), vehicle: acetone 100 % of control | dose: 200.0 mg/kg/injection, schedule: Q04DX003 (ip), vehicle: acetone 90 % of control | dose: 400.0 mg/kg/injection, schedule: Q04DX003 (ip), vehicle: acetone 104 % of control

Cc1ccc(C(=O)Cc2ccc(C#N)cc2)cc1
inactive: [6] 98 % of control | [7] 96 % of control | [8] 104 % of control | [9] 98 % of control

NNc1ccnc2c1cnn2C1OC(CO)C(O)C1O (stereo not drawn)
inactive: dose: 50.0 mg/kg/injection, schedule: Q01DX005 (ip), vehicle: other 105 % of control

CCCC(CNC1CCCCC1)OC(=O)c1ccc(N)cc1 (stereo not drawn)
inactive: dose: 75.0 mg/kg/injection, schedule: Q01DX001 (ip), vehicle: other 96 % of control

COc1ccc2c(O)c(Cl)c(=O)oc2c1
inactive: dose: 100.0 mg/kg/injection, schedule: Q04DX003 (ip), vehicle: saline 91 % of control | dose: 200.0 mg/kg/injection, schedule: Q04DX003 (ip), vehicle: saline 91 % of control | dose: 400.0 mg/kg/injection, schedule: Q04DX003 (ip), vehicle: saline 94 % of control

O=C(Nc1ccc2c(c1)C(=O)c1ccccc1C2=O)Nc1cc(C(F)(F)F)ccc1Cl
inactive: [1] 103 % of control | [2] 97 % of control | [3] 88 % of control

O=S(=O)(C=C(N1CCCCC1)N1CCCCC1)Cc1ccccc1
inactive: [4] 113 % of control | dose: 12.5 mg/kg/injection, schedule: Q01DX001 (ip), vehicle: saline 100 % of control | [5] 106 % of control | dose: 12.5 mg/kg/injection, schedule: Q04DX003 (ip), vehicle: saline 94 % of control | dose: 25.0 mg/kg/injection, schedule: Q01DX001 (ip), vehicle: saline 100 % of control | dose: 25.0 mg/kg/injection, schedule: Q01DX009 (ip), vehicle: saline 103 % of control | dose: 25.0 mg/kg/injection, schedule: Q04DX003 (ip), vehicle: saline 98 % of control | dose: 35.0 mg/kg/injection, schedule: Q01DX009 (ip), vehicle: acetone 101 % of control | [6] 106 % of control

O=C(Nc1cccc(C(F)(F)F)c1)N1CCN(c2ccccc2)CC1
inactive: [1] 103 % of control | [2] 96 % of control | [3] 106 % of control

Clc1ccccc1-c1nc2ccccc2cc1Br
inactive: [7] 97 % of control | [8] 96 % of control | [9] 92 % of control

OC(c1ccccc1)(c1ccccc1)C1c2ccccc2-c2[nH]c3ccccc3c21 (stereo not drawn)
inactive: dose: 200.0 mg/kg/injection, schedule: Q01DX001 (ip), vehicle: saline with Tween-80 91 % of control

C1CC2OC2C1 (stereo not drawn)
inactive: dose: 100.0 mg/kg/injection, schedule: Q01DX009 (ip), vehicle: saline 104 % of control | [10] 97 % of control | dose: 200.0 mg/kg/injection, schedule: Q01DX009 (ip), vehicle: saline 108 % of control | [11] 100 % of control | dose: 400.0 mg/kg/injection, schedule: Q01DX009 (ip), vehicle: saline 105 % of control | [12] 90 % of control

NC(=O)NC1CCCCCC1
inactive: [10] 94 % of control | [11] 91 % of control | [12] 91 % of control

From PubChem BioAssay AID248 (DTP/NCI, 2004)
